Reference: BindingDB's records for doi:10.1016/j.ejmech.2019.112028 (Hunan Agricultural University, 2020)

Columns and labels:
[1] = Potentiation of amphotericin-induced cytotoxicity against human DU-145 cells over expressing CYP1B1 assessed as reversal of CYP1B1 mediated drug resistance at 5 uM after 48 hrs by MTT assay (Rvb = 43.25 +/- 1.7 nM)
[2] = Potentiation of amphotericin-induced cytotoxicity against human DU-145 cells over expressing CYP1B1 assessed as reversal of CYP1B1 mediated drug resistance at 1 uM after 48 hrs by MTT assay (Rvb = 43.25 +/- 1.7 nM)

Structure (SMILES) | IC50 [1] [nM] | IC50 [2] [nM]
COc1ccc(OC)c2c1c(OC)cc1c(=O)cc(-c3ccc(-c4cn(CCOc5cccc6c5C(=O)N(C5CCC(=O)NC5=O)C6=O)nn4)cc3)oc12 (centres undefined) | 24 | 
COc1ccc(OC)c2c1c(OC)cc1c(=O)cc(-c3ccc(-c4cn(CCCCCOc5cccc6c5C(=O)N(C5CCC(=O)NC5=O)C6=O)nn4)cc3)oc12 (centres undefined) |  | 28
COc1ccc(OC)c2c1c(OC)cc1c(=O)cc(-c3ccc(-c4cn(CCCCCCOc5cccc6c5C(=O)N(C5CCC(=O)NC5=O)C6=O)nn4)cc3)oc12 (centres undefined) | 7 | 
COc1ccc(OC)c2c1c(OC)cc1c(=O)cc(-c3ccc(-c4cn(CCCCCCCCOc5cccc6c5C(=O)N(C5CCC(=O)NC5=O)C6=O)nn4)cc3)oc12 (centres undefined) | 37 | 
